Results as given in patent US20230381349A1, “METHODS AND COMPOSITIONS FOR IMAGING AND TREATING CANCER” (WASHINGTON UNIVERSITY, priority 2020, published 2023).

Columns and labels:
[1] = system: KI tumor; experiment: Treatment efficacy in KI xenograft model; format: in vivo, mouse; conditions: for median survival: KI mice
Description: A KI xenograft model was used to monitor tumor growth trends and treatment efficacy of CuNPs-ECL1i-Gem. 10 days after tumor implantation, mice were randomized into 5 groups (n=5/group): (1) CuNPs-ECL1i-Gem (Cu mass: 10 mg/kg body weight, Gem: 3.4±0.8 mg/kg body weight, I.V. injection, twice per week); (2) CuNPs-ECL1i (same CuNPs-NT dose as (1), I.V. injection, twice per week); (3) gemcitabine 7 mg/kg body weight (I.V. injection, twice per week); (4) gemcitabine 100 mg/kg body weight (I. P. injection, once per week); (5) saline (100 μL, I.V. injection, twice per week). For the 2nd treatment study, the mice started dose administration at 7 days post implantation. The dose regimens of CuNPs-NT-Gem and CuNPs-ECL1i-Gem were the same as the 1st treatment study. The Cu mass was limited to a dosage of 10 mg/kg for all nanoparticle groups, and the relative loaded gemcitabine dose was 3.4±0.8 mg/kg body weight. […] Tumor volume was calculated as (length×width2)/2. The treatment was continued for 6 successive weeks or until the mice died or were sacrificed and deemed as dead when their tumor volume reached over 2000 mm^3. After treatment, the tumors were collected for H&E staining.

[2] = system: KI cells; experiment: In vitro cytotoxicity (WST-1 cell viability) assay; format: cell-based; conditions: Mus musculus, 72 h, 3 days continuous drug treatment
Description: All cells were cultured at 37° C., 5% C02, and 95% humidity.
The KI Cells were seeded into 96-well plates at a density of 5000 cells per well. 24 hrs later, the medium was replaced by fresh medium containing TA-PEG-Gem and Gem at the indicated concentration (range, 0-500 μM), respectively. All experimental incubation conditions were performed at least in triplicate. Cell viability was determined after 3 days of continuous drug treatment using the WST-1 cell cytotoxicity assay (Roche, Basel, Switzerland) following the manufacturer's instruction. Briefly, 10 μl WST-1 reagent was added in each well followed by additional incubation for 4 h. The absorbance at 440 nm was measured using a microplate reader. IC50 was calculated using GraphPad Prism 7.03 software (GraphPad Software, San Diego, CA).

## Nc1ccn([C@@H]2O[C@H](CO)[C@@H](O)C2(F)F)c(=O)n1 [Gem, gemcitabine]
[1]; start day 10, high dose 100 mg/kg I.P. once per week
  median survival: 26 days
[1]; start day 10, low dose 7 mg/kg I.V. twice per week
  median survival: 25 days
[1]; start day 10, high dose 100 mg/kg I.P.
  tumor growth effect compared to saline: did not show any treatment benefit
[1]; start day 10, low dose 7 mg/kg I.V.
  tumor growth effect compared to saline: did not show any treatment benefit
[2]
  IC50: 19.7 µM
